Data published in PMC11851430, “Workflow for E3 Ligase Ligand Validation for PROTAC Development” (ACS Chemical Biology, 2025).

Tests used:
[1] = molecular target: T1, ABL1 (Homo sapiens, UniProt P00519); assay: Kinobeads selectivity profiling; type: binding; details: Jurkat lysate, dose series given in nM, read-out: Kd (apparent dissociation constant, corrected for protein depletion)
T1 construct: endogenous in cells; host or cells: Jurkat (Clone E6.1) cell lysate
Description: Excitation and emission filters […]
curve. […] Measurements were
Kinobeads selectivity profiling of PROTACs
(Multiplexion, Heidelberg, Germany).
The cell lysate was ultracentrifuged and diluted
NaF, 1 mM DTT, protease inhibitors and phosphatase inhibitors to a final concentration of 5 mg/ml as determined by Bradford assay. For selectivity profiling of compounds the cell lysate (2.5 mg of total proteins per pulldown) was pre-incubated with increasing compound […]
µM) for 45 min at 4 °C in an end-over-end shaker. Subsequently, lysates were incubated with Kinobeads epsilon (17 µL settled beads) for 30 min at 4 °C. To assess the degree of protein depletion from the lysates by Kinobeads, the flow-through of the DMSO control was recovered […]
for a pulldown of pulldown experiment where the lysate was incubated a second time with fresh Kinobeads. Beads were washed in 3 steps with buffer containing 0.4%, 0.2% and no NP40.
Bound proteins were reduced with 50 mM DTT in 8 M Urea, 40 mM Tris-HCl pH 7.4 for 30 min at room temperature. After alkylation with 55 mM chloroacetamide (CAA), the Urea concentration was reduced to 1 – 2 M and proteins were digested using trypsin. Acidified peptides were desalted and concentrated using SepPak tC18 µEluation plates (Waters).
Samples were frozen, dried by vacuum centrifugation and stored at -20 °C.
LC-MS2 analysis. Peptides were measured on a Dionex Ultimate3000 nano HPLC coupled online to an Orbitrap Fusion Lumos (Thermo Fisher Scientific) mass spectrometer.
Peptides were dissolved in 0.1% formic acid and delivered to a trap column (ReproSil-pur C18-AQ, 5 μm, Dr. Maisch, 20 mm × 75 μm, self-packed) at a flow rate of 5 μL/min in LC solvent A (0.1 % formic acid).4 After 10 min of loading, peptides were transferred to an analytical column (ReproSil Gold C18-AQ, 3 μm, Dr. Maisch, 400 mm × 75 μm, self-packed) and separated using […]
acetonitrile) in LC solvent A.
The Orbitrap Fusion Lumos was operated as follows: positive polarity; spray voltage 2.1 kV, […]
A full-scan (MS1) was recorded from 360 to 1300 m/z with a resolution of 60,000 in the Orbitrap in profile mode. The MS1 AGC target was set to 4e5 and the maxIT was set to 50 ms, RF lens value was set to 50%. Based on the full scans, precursors were targeted for the MS/MS scans […]
intensity exceeded 2.5e4. The dynamic exclusion was set to 30 sec and exclude isotopes was switched on. The MS2 quadrupole isolation window was set to 1.7 m/z. Peptide fragmentation occurred in the ion routing multipole (IRM) by HCD with a fixed collision energy mode, the […]

[2] = molecular target: T2, kinase protein levels in MCF-7 cells (Homo sapiens, UniProt A0A024RBG1); assay: TMT-labeled quantitative proteomics; type: cell-based; details: protein NUDT4B; MCF7; 1 µM; set2
T2 construct: endogenous in cells; host or cells: MCF-7
T2 sequence (A0A024RBG1 whole entry): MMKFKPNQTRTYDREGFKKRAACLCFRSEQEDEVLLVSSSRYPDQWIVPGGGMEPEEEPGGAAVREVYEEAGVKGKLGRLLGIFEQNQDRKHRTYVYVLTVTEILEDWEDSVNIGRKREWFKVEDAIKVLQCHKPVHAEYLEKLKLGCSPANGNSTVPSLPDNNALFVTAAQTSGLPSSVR

T1 sequence (P00519 whole entry): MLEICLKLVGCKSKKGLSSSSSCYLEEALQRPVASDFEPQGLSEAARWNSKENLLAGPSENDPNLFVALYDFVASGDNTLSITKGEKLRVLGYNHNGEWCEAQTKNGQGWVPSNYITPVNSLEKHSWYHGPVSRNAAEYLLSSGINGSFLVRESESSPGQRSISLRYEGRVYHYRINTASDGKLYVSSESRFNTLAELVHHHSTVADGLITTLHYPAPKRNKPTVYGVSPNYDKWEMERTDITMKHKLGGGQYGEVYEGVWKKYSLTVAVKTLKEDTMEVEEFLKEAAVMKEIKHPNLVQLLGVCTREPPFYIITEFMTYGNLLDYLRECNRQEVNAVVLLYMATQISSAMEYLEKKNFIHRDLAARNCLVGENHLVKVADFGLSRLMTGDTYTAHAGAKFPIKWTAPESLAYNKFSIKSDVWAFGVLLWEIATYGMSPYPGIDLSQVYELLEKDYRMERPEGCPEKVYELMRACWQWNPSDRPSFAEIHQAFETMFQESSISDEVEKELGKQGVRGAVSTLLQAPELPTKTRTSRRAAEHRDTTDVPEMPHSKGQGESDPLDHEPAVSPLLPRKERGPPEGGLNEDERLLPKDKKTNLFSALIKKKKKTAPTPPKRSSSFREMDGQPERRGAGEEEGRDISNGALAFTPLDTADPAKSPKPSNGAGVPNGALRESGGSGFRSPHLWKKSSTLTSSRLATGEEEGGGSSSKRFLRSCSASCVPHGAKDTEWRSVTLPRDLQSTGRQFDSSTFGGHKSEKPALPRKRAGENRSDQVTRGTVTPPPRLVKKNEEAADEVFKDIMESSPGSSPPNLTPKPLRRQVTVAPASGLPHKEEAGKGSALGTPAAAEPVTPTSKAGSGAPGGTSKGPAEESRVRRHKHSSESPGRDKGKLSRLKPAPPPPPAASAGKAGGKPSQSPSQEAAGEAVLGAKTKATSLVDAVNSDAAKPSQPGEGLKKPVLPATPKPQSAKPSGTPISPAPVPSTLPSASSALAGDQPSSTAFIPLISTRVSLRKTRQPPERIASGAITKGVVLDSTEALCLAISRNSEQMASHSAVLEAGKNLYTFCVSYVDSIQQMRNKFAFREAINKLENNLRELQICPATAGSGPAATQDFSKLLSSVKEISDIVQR

Row | Compound | Kd [1] [nM] | P.Value (compound/DMSO) [2] | log2FC (compound/DMSO) [2]
1 | CC(C)(C)OC(=O)NCCOCCOCCOCCOCCC(=O)N1CCN(c2cc(Nc3cc(C4CC4)[nH]n3)nc(Nc3ccc(CC#N)cc3)n2)CC1 [4-L] | 2200 |  | 
2 | CC(C)(C)OC(=O)NCCCOCCOCCOCCCNC(=O)c1cc(Nc2cc(C3CC3)[nH]n2)nc(Nc2ccc(CC#N)cc2)n1 [5-L] | 4950 |  | 
3 | CC(=O)N[C@H](C(=O)N1C[C@H](O)C[C@H]1C(=O)NCc1ccc(-c2scnc2C)cc1OCCOCCOCCOCCNC(=O)c1cc(Nc2cc(C3CC3)[nH]n2)nc(Nc2ccc(CC#N)cc2)n1)C(C)(C)C [5-b] |  | 0.01265 | -0.4511
4 | CC(=O)N[C@H](C(=O)N1C[C@H](O)C[C@H]1C(=O)NCc1ccc(-c2scnc2C)cc1OCCOCCOCCOCCOCCC(=O)N1CCN(c2ccc(Nc3ncc(Cl)c(Nc4ccccc4C(N)=O)n3)cc2)CC1)C(C)(C)C [6-e] |  | 0.2879 | 0.1111
